For 19 compounds, IC50 results are on record in US20250171423A1, “PHARMACEUTICAL COMPOUNDS FOR THE TREATMENT OF COMPLEMENT MEDIATED DISORDERS” (Achillion Pharmaceuticals, Inc., priority 2020, published 2025).

This experiment deals with T1, Human complement C1s enzyme (Homo sapiens, UniProt P09871).
T1 construct: purified from human serum, Complement Technology, Inc; purchased Complement Technology, Inc; host or cells: human serum
T1 sequence (P09871 438-688 limits assumed): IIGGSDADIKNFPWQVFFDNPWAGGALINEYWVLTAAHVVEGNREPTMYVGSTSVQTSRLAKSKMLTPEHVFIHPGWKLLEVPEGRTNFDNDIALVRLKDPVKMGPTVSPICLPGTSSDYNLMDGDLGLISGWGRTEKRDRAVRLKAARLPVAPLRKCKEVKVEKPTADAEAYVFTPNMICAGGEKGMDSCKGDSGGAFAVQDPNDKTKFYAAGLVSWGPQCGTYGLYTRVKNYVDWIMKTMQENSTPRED
T1 sequence (P09871 16-437 partner limits assumed): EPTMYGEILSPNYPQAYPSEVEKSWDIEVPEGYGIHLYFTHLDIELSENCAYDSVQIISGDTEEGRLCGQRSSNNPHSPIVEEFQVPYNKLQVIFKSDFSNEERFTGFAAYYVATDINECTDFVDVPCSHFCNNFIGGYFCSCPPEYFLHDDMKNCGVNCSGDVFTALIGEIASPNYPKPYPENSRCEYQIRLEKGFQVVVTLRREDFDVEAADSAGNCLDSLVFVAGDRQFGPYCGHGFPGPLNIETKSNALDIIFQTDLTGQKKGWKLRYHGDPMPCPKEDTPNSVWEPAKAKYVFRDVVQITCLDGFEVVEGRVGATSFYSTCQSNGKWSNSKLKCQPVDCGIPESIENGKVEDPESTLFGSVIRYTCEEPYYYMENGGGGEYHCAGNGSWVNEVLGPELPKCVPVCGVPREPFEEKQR
The experiment is described as follows: Human C1s Enzyme Assay. Type of experiment: biochemical. The following applies: human C1s 1.16 nM, 5 min preincubation, substrate Z-L-Lys-SBzl 100 μM, A405; read-out: C1s Protease Activity. In a few lines: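 IC50 values were fitted by nonlinear regression to rates measured as A405 every 30 s for 30 min. The thioester substrate Z-L-Lys-SBzl and Ellman's reagent were each at 100 μM. Serum-derived C1s at 1.16 nM final had 5 min of room-temperature preincubation with compound (pH 7.5 Tris buffer, 1 M NaCl).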
`C[C@@H](NC(=O)[C@@H]1C[C@@]23COCCC/C=C/CCCCCCCCC(=O)N[C@@H](CCOc4ccccc4)C(=O)NCC(=O)N1[C@H]2C3)c1cc(C(=N)N)cs1` [Compound 250, (1R,19S,25S,28S,E)-N-((R)-1-(4-carbamimidoylthiophen-2-yl)ethyl)-17,20,23-trioxo-19-(2-phenoxyethyl)-3-oxa-18,21,24-triazatricyclo[22.2.2.0^1,25]octacos-7-ene-28-carboxamide]: the IC50 is below 100 nM.
The same measure for `C[C@@H](NC(=O)[C@@H]1C[C@@H](c2ccccc2)CN1C(=O)CNC(=O)c1ccc(Oc2ccccc2)cc1)c1cc(C(=N)N)cs1` [Compound 246, (2S,4S)-N-((R)-1-(4-carbamimidoylthiophen-2-yl)ethyl)-1-((4-phenoxybenzoyl)glycyl)-4-phenylpyrrolidine-2-carboxamide]: below 100 nM; for `C/N=C(/NC)c1csc(CNC(=O)[C@@H]2C[C@]3(C)C[C@@H]3N2C(=O)CNC(=O)c2ccc(Oc3ccccc3)cc2)c1` [Compound 222, (1S,3S,5S)-N-((4-((E)-N,N′-dimethylcarbamimidoyl)thiophen-2-yl)methyl)-5-methyl-2-((4-phenoxybenzoyl)glycyl)-2-azabicyclo[3.1.0]hexane-3-carboxamide]: above 1000 nM.
The same measure for `C[C@H](Oc1ccc(C(=O)NCC(=O)N2[C@H]3C[C@@]3(C)C[C@H]2C(=O)NCc2cc(C(=N)N)cs2)cc1)c1ccccc1` [Compound 212, (1S,3S,5S)-N-((4-carbamimidoylthiophen-2-yl)methyl)-5-methyl-2-((4-((S)-1-phenylethoxy)benzoyl)glycyl)-2-azabicyclo[3.1.0]hexane-3-carboxamide]: below 100 nM.
The same measure for `C[C@@H](NC(=O)[C@@H]1CC2(CN1C(=O)CNC(=O)CCCOc1ccc(F)cc1)OCCO2)c1cc(C(=N)N)cs1` [Compound 104, (S)-N-((R)-1-(4-carbamimidoylthiophen-2-yl)ethyl)-7-((4-(4-fluorophenoxy)butanoyl)-glycyl)-1,4-dioxa-7-azaspiro[4.4]nonane-8-carboxamide]: below 100 nM; for `N=C(N)c1csc(CNC(=O)[C@@H]2C[C@@H](c3ccccc3)CN2C(=O)CNC(=O)CCCOc2ccccc2)c1` [Compound 156, (2S,4S)-N-((4-carbamimidoylthiophen-2-yl)methyl)-1-((4-phenoxybutanoyl)glycyl)-4-phenylpyrrolidine-2-carboxamide]: below 100 nM; for `N=C(N)c1csc(CNC(=O)[C@@H]2C[C@@]3(CN2C(=O)CNC(=O)c2ccc(Oc4ccccc4)cc2)CC3(F)F)c1` [Compound 21, (3S,6S)-N-((4-carbamimidoylthiophen-2-yl)methyl)-1,1-difluoro-5-((4-phenoxy-benzoyl)glycyl)-5-azaspiro[2.4]heptane-6-carboxamide]: below 100 nM.
For the compound `CO[C@@H]1C[C@@H](C(=O)N[C@H](C)c2cc(C(=N)N)cs2)N(C(=O)CNC(=O)c2ccc(Oc3ccccc3)cc2)C1` [Compound 185, (2S,4R)-N-((R)-1-(4-carbamimidoylthiophen-2-yl)ethyl)-4-methoxy-1-((4-phenoxybenzoyl)glycyl)pyrrolidine-2-carboxamide], the IC50 was below 100 nM.
The value for `Cc1cccc(O[C@@H]2C[C@@H](C(=O)N[C@H](C)c3cc(C(=N)N)cs3)N(C(=O)CNC(=O)CCCOc3ccccc3)C2)c1` [Compound 118, (2S,4R)-N-((R)-1-(4-carbamimidoylthiophen-2-yl)ethyl)-1-((4-phenoxybutanoyl)-glycyl)-4-(m-tolyloxy)pyrrolidine-2-carboxamide] was below 100 nM; that for `C[C@@H](NC(=O)[C@@H]1C[C@](F)(COCCCCCC(=O)O)CN1C(=O)CNC(=O)CCCOc1ccccc1)c1cc(C(=N)N)cs1` [Compound 234, 6-(((3R,5S)-5-(((R)-1-(4-carbamimidoylthiophen-2-yl)ethyl)carbamoyl)-3-fluoro-1-((4-phenoxybutanoyl)glycyl)pyrrolidin-3-yl)methoxy)hexanoic acid] was below 100 nM.
Turning to `C[C@@]12C[C@@H]1N(C(=O)CNC(=O)c1ccc(Oc3ccccc3)cc1)[C@H](C(=O)NCc1ncc(C(=N)N)s1)C2` [Compound 235, (1S,3S,5S)-N-((5-carbamimidoylthiazol-2-yl)methyl)-5-methyl-2-((4-phenoxybenzoyl)glycyl)-2-azabicyclo[3.1.0]hexane-3-carboxamide], the IC50 is below 100 nM.
`C[C@@H](NC(=O)[C@@H]1C[C@@H](Oc2ccccc2)CN1C(=O)CNC(=O)CCCOc1ccccc1)c1cc(C(=N)N)cs1` [Compound 111, (2S,4R)-N-((R)-1-(4-carbamimidoylthiophen-2-yl)ethyl)-4-phenoxy-1-((4-phenoxy-butanoyl)glycyl)pyrrolidine-2-carboxamide]: the IC50 is below 100 nM.
The value for `C[C@@]12C[C@@H]1N(C(=O)CNC(=O)c1ccc(Oc3ccccn3)cc1)[C@H](C(=O)NCc1cc(C(=N)N)cs1)C2` [Compound 153, (1S,3S,5S)-N-((4-carbamimidoylthiophen-2-yl)methyl)-5-methyl-2-((4-(pyridin-2-yloxy)benzoyl)glycyl)-2-azabicyclo[3.1.0]hexane-3-carboxamide] was below 100 nM; that for `N=C(N)c1csc([C@@H](NC(=O)[C@@H]2CC3(CN2C(=O)CNC(=O)CCCOc2ccccc2)OCCO3)c2ccccc2)c1` [Compound 217, (S)-N-((S)-(4-carbamimidoylthiophen-2-yl)(phenyl)methyl)-7-((4-phenoxybutanoyl)glycyl)-1,4-dioxa-7-azaspiro[4.4]nonane-8-carboxamide] was above 1000 nM; that for `N=C(N)c1csc(CNC(=O)[C@@H]2CC3(CN2C(=O)CNC(=O)CCCOc2ccc(C4CC4)cc2)OCCO3)c1` [Compound 208, (S)-N-((4-carbamimidoylthiophen-2-yl)methyl)-7-((4-(4-cyclopropylphenoxy)butanoyl)glycyl)-1,4-dioxa-7-azaspiro[4.4]nonane-8-carboxamide] was below 100 nM.
The value for `CC(C)(C)c1ccc(OCCCC(=O)NCC(=O)N2[C@H]3C[C@@]3(C)C[C@H]2C(=O)NCc2cc(C(=N)N)cs2)cc1` [Compound 87, (1S,3S,5S)-2-((4-(4-(tert-butyl)phenoxy)butanoyl)glycyl)-N-((4-carbamimidoyl-thiophen-2-yl)methyl)-5-methyl-2-azabicyclo[3.1.0]hexane-3-carboxamide] was below 100 nM; that for `CC(CCC(=O)NCC(=O)N1CC2(C[C@H]1C(=O)NCc1cc(C(=N)N)cs1)OCCO2)Oc1ccccc1` (stereo partly drawn) [Compound 97, (8S)-N-((4-carbamimidoylthiophen-2-yl)methyl)-7-((4-phenoxypentanoyl)glycyl)-1,4-dioxa-7-azaspiro[4.4]nonane-8-carboxamide] was below 100 nM; that for `C[C@@]12C[C@@H]1N(C(=O)CNC(=O)CCCOc1ccccc1)[C@H](C(=O)NCc1cc(C(=N)N)c(F)s1)C2` [Compound 245, (1S,3S,5S)-N-((4-carbamimidoyl-5-fluorothiophen-2-yl)methyl)-5-methyl-2-((4-phenoxybutanoyl)glycyl)-2-azabicyclo[3.1.0]hexane-3-carboxamide] was below 100 nM.
In the case of `N=C(N)c1csc(CNC(=O)[C@@H]2C[C@H](C3CCCCC3)CN2C(=O)CNC(=O)c2ccc(Oc3ccccc3)cc2)c1` [Compound 73, (2S,4R)-N-((4-carbamimidoylthiophen-2-yl)methyl)-4-cyclohexyl-1-((4-phenoxy-benzoyl)glycyl)pyrrolidine-2-carboxamide], the IC50 was below 100 nM.
